From patent US9309224B2 (Deciphera Pharmaceuticals, LLC, priority 2013, dated 2016)
pIC50: −log10 of the molar value.

How the values were obtained:
[1] = system: M-NFS-60 cells; experiment: M-NFS-60 cell proliferation assay; type: cell-based; conditions: 67 h incubation, resazurin
Description: M-NFS-60 Cell Proliferation Assay A serial dilution of test compound was dispensed into a 384-well black clear bottom plate (Corning, Corning, N.Y.). Two thousand five hundred cells were added per well in 50 μL complete growth medium. […] IC50 values were calculated from a series of percent inhibition values determined at a range of inhibitor concentrations using software routines as implemented in the GraphPad Prism software package.

[2] = system: osteoclast precursors; experiment: Osteoclast tartrate-resistant acid phosphatase assay; type: cell-based; conditions: Osteoclast; 7-14 days, RANKL and M-CSF
Description: Diluted compound was transferred to a 384-well black clear bottom plate. Two-thousand five hundred osteoclast precursors (Lonza, Walkersville, Md.) were added per well in growth media containing Receptor Activator of Nuclear Factor Kappa-beta ligand (RANKL) and M-CSF (R&D Systems, Minneapolis, Minn.). Plates were incubated for 7-14 days at 37 degrees Celsius, 5% CO2, and 95% humidity to allow differentiation of osteoclast precursors. […] Tartrate-resistant acid phosphatase activity in the supernatant samples was determined using an acid phosphatase assay kit (Sigma, St. Louis, Mo.). Absorbance was measured at 550 nm using a plate reader. Data was analyzed using Prism software (Graphpad, San Diego, Calif.) to calculate IC50 values.

[3] = target: T1, unphosphorylated c-FMS kinase (uFMS, Seq. ID no. 1) (Homo sapiens, UniProt P07333); experiment: uFMS kinase assay (pyruvate kinase/lactate dehydrogenase coupled); type: biochemical; conditions: ATP 500 μM
T1 construct: purchased Millipore
T1 sequence (P07333 538-972): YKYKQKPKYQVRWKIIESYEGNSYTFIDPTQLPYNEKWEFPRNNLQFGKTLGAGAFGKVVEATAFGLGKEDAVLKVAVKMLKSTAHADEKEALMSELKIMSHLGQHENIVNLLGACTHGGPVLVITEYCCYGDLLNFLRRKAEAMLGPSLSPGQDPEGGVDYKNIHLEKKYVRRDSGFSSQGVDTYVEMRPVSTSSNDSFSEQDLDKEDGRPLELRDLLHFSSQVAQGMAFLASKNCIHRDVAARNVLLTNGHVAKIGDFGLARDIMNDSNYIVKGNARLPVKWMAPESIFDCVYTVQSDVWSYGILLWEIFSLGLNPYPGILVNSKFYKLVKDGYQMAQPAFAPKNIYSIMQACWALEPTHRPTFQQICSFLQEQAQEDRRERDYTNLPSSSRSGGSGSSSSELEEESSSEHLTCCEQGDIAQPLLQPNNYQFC

[4] = target: T2, unphosphorylated c-KIT kinase (uKIT, Seq. ID no. 2) (Homo sapiens, UniProt P10721); experiment: uKit kinase assay (pyruvate kinase/lactate dehydrogenase coupled); type: biochemical; conditions: ATP 2000 μM
T2 construct: uKit with N-terminal GST fusion used for
Description: In this assay, the oxidation of NADH (thus the decrease at A340 nm) was continuously monitored spectrophometrically. […] The inhibition reaction was started by mixing serial diluted test compound with the above reaction mixture. The absorption at 340 nm was monitored continuously for 4 hours at 30° C. on Synergy 2 plate reader (BioTech).

[5] = target: T3, unphosphorylated PDGFRβ kinase (uPDGFRβ, Seq. ID No. 3) (Homo sapiens, UniProt P09619); experiment: Unphosphorylated PDGFRβ kinase assay (pyruvate kinase/lactate dehydrogenase coupled); type: biochemical; conditions: ATP 500 μM
T3 construct: purchased DeCode
Source text: Unphosyhorylated PDGFRβ (uPDGFRβkinase (Seq. ID No. 3) assay

T3 sequence (P09619 557-1105): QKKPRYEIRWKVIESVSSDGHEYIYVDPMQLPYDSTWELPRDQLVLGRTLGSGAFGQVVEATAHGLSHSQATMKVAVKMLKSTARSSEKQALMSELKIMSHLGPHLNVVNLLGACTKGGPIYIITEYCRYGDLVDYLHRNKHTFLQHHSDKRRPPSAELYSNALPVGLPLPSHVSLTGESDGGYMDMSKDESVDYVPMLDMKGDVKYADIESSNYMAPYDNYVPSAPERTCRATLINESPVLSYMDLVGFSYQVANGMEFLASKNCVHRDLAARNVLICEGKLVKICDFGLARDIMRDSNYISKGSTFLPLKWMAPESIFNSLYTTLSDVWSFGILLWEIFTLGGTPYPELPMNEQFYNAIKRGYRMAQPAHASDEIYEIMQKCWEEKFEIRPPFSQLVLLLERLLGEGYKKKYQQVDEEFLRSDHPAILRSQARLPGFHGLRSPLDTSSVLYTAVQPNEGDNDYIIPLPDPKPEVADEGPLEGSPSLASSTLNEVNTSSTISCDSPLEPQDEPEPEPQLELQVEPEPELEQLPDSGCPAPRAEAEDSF
T2 sequence (P10721 with tags, fused parts or gaps): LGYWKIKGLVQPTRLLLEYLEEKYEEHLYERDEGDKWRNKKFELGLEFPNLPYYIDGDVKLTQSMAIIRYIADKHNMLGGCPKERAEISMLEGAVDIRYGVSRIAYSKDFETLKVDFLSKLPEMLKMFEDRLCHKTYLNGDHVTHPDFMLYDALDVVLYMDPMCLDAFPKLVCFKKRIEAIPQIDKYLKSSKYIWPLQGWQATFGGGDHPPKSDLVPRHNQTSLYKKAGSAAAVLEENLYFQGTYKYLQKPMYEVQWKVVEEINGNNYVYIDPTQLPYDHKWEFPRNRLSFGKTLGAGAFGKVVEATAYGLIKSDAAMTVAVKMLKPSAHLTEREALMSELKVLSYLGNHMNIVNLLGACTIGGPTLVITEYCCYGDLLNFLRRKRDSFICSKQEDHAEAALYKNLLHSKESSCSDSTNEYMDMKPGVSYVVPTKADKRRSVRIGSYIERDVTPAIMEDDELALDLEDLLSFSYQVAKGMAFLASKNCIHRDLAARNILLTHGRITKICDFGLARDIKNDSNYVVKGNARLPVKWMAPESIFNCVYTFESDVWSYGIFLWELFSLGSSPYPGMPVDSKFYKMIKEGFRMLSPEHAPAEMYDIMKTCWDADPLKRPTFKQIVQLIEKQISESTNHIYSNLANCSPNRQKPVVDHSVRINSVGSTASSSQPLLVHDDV

Row | pIC50 [2] | pIC50 [3] | pIC50 [4] | pIC50 [5] | Structure (SMILES) | pIC50 [1]
1 | > 8.00 | 7.00 to 8.00 | 6.00 to 7.00 |  | CC(=O)Nc1cc(Oc2ccc(NC(=O)NC(=O)C3CCCCC3)nc2)ccn1 [Example 1, N-((5-((2-acetamidopyridin-4-yl)oxy)pyridin-2-yl)carbamoyl)cyclohexanecarboxamide] | > 8.00
2 | > 8.00 | > 8.00 | 7.00 to 8.00 |  | CC(=O)Nc1cc(Oc2ccc(NC(=O)NC(=O)CC3CCCCC3)nc2)ccn1 [Example 4, N-((5-((2-acetamidopyridin-4-yl)oxy)pyridin-2-yl)carbamoyl)-2-cyclohexylacetamide] | > 8.00
3 | 7.00 to 8.00 | 7.00 to 8.00 | < 6.00 | 7.00 to 8.00 | CC(=O)Nc1cc(Oc2ccc(NC(=O)NC(=O)CC3CCOCC3)nc2)ccn1 [Example 6, N-((5-((2-acetamidopyridin-4-yl)oxy)pyridin-2-yl)carbamoyl)-2-(tetrahydro-2H-pyran-4-yl)acetamide] | 6.00 to 7.00
4 | 7.00 to 8.00 | 7.00 to 8.00 | < 6.00 | 6.00 to 7.00 | CC(=O)Nc1cc(Oc2ccc(NC(=O)NC(=O)C(C)C)nc2C)ccn1 [Example 10, N-((5-((2-acetamidopyridin-4-yl)oxy)-6-methylpyridin-2-yl)carbamoyl)isobutyramide] | 7.00 to 8.00
5 | 6.00 to 7.00 | 6.00 to 7.00 | < 6.00 | < 6.00 | CC(=O)Nc1cc(Oc2ccc(NC(=O)NC(=O)C3CCOC3)nc2C)ccn1 (stereo not shown) [Example 14, N-((5-((2-acetamidopyridin-4-yl)oxy)-6-methylpyridin-2-yl)carbamoyl)tetrahydrofuran-3-carboxamide] | 7.00 to 8.00
6 | 7.00 to 8.00 | 7.00 to 8.00 | < 6.00 | 6.00 to 7.00 | CC(=O)Nc1cc(Oc2ccc(NC(=O)NC(=O)C(C)C)nc2)ccn1 [Example 15, N-((5-((2-acetamidopyridin-4-yl)oxy)pyridin-2-yl)carbamoyl)isobutyramide] | 7.00 to 8.00
7 | 6.00 to 7.00 | 6.00 to 7.00 | < 6.00 | < 6.00 | CCC(=O)NC(=O)Nc1ccc(Oc2ccnc(NC(C)=O)c2)cn1 [Example 16, N-((5-((2-acetamidopyridin-4-yl)oxy)pyridin-2-yl)carbamoyl)propionamide] | 6.00 to 7.00
8 | > 8.00 | > 8.00 | 6.00 to 7.00 | 6.00 to 7.00 | CC(C)(C)C(=O)NC(=O)Nc1ccc(Oc2ccnc(NC(=O)C3CC3)c2)cn1 [Example 18, N-(4-((6-(3-pivaloylureido)pyridin-3-yl)oxy)pyridin-2-yl)cyclopropanecarboxamide] | > 8.00
9 | 7.00 to 8.00 | 7.00 to 8.00 | < 6.00 | < 6.00 | CC(=O)Nc1cc(Oc2ccc(NC(=O)NC(=O)C3CCOC3)nc2)ccn1 (stereo not shown) [Example 22, N-((5-((2-acetamidopyridin-4-yl)oxy)pyridin-2-yl)carbamoyl)tetrahydrofuran-3-carboxamide] | 6.00 to 7.00
10 | > 8.00 | > 8.00 | 6.00 to 7.00 |  | CC(=O)Nc1cc(Oc2ccc(NC(=O)NC(=O)C3CC4CCC3O4)nc2)ccn1 (stereo not shown) [Example 28, N-((5-((2-acetamidopyridin-4-yl)oxy)pyridin-2-yl)carbamoyl)-7-oxabicyclo[2.2.1]heptane-2-carboxamide] | 7.00 to 8.00
11 | 7.00 to 8.00 | 7.00 to 8.00 | < 6.00 |  | CC(=O)Nc1cc(Oc2ccc(NC(=O)NC(=O)C3CC4CCC3O4)nc2C)ccn1 (stereo not shown) [Example 29, N-((5-((2-acetamidopyridin-4-yl)oxy)-6-methylpyridin-2-yl)carbamoyl)-7-oxabicyclo[2.2.1]heptane-2-carboxamide] | 7.00 to 8.00
12 | 7.00 to 8.00 | 7.00 to 8.00 | < 6.00 |  | COC(C)(C)C(=O)NC(=O)Nc1ccc(Oc2ccnc(NC(=O)C3CCN(C)CC3)c2)cn1 [Example 40, N-(4-((6-(3-(2-methoxy-2-methylpropanoyl)ureido)pyridin-3-yl)oxy)pyridin-2-yl)-1-methylpiperidine-4-carboxamide] | 6.00 to 7.00
